Holding throughout (assay): NCI anticancer screen, dose series, 48 h
The test system of assay [1] is CCRF-CEM leukemia.
In assay [2] the test system is IGROV1 ovarian.
Assay [3] deals with SK-OV-3 ovarian.
Assay [4] deals with SW-620 colon.
Assay [5] deals with MDA-MB-231 breast.
The test system of assay [6] is MCF7 breast.
The subject of assay [7] is OVCAR-5 ovarian.
Assay [8] deals with T-47D breast.

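Growth conditions: 96-well plates. Treatment: test compound, 48 hours, 5 concentrations. Analysis: linear interpolation between bracketing concentrations; unreached endpoints set to highest concentration. Here, GI50 denotes the concentration required for 50% inhibition of growth. The concentration for full growth arrest is given as TGI.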

The results in this text go back to PubChem BioAssay (NCI).

Take `CC(C)NCCCCCNc1cc(O)cc2cccnc12`: the GI50 was above 51.2 µM in assay [1]; 4.81 µM in assay [2]; above 100 µM in assay [3]; above 100 µM in assay [4]; 4.78 µM in assay [5]; 18.7 µM in assay [6]. Moreover, the GI50 in assay [7] was above 100 µM; in assay [8], 4.56 µM. Moreover, the TGI in assay [1], in assay [2], in assay [3], in assay [4], in assay [5] and in assay [6] was above 100 µM each time. The TGI in assay [7] and in assay [8] was above 100 µM throughout.
As for `O=[N+]([O-])c1ccc(NN=C2c3ccccc3Cc3ccccc32)c([N+](=O)[O-])c1`, the TGI is 18.2 µM in assay [1]; above 100 µM in assay [2]; above 100 µM in assay [3]; above 100 µM in assay [4]; above 100 µM in assay [5]; above 100 µM in assay [6]. Besides, the TGI in assay [7] and in assay [8] was above 100 µM in each case.
Regarding `CS(=O)(=O)N(CC(=O)O)Cc1ccccc1`, the TGI in assay [1], in assay [2], in assay [3], in assay [4], in assay [5] and in assay [6] was above 100 µM each time. Also, the TGI in assay [7] and in assay [8] was above 100 µM each time.
For the compound `CNc1ccc(C(=O)CC(O)CCC(C)C2OC(=O)CC(O)CC(=O)CC(O)CC(O)CC(O)CC(O)CC3(O)CC(O)C(C(=O)NCCc4ccccn4)C(CC(OC4OC(C)C(O)C(N)C4O)/C=C/C=C/C=C/C=C\C=C/C=C/C=C/C2C)O3)cc1` (configuration not stated), the GI50 was 1.77 µM in assay [1]; 2.32 µM in assay [3]; above 41.5 µM in assay [4]; 6.23 µM in assay [5]; 1.25 µM in assay [6]; 0.323 µM in assay [7]. Besides, the GI50 in assay [8] is 1.26 µM. Also, the TGI in assay [1] was above 50 µM; in assay [2], above 50 µM; in assay [3] it was above 50 µM; in assay [4], above 50 µM; in assay [5], above 21.2 µM; in assay [6] it was 10.4 µM. Besides, the TGI in assay [7] is 2.02 µM; in assay [8] it was above 50 µM.
On to `CN1CCN(CCCOc2ccc3nc(Nc4ccc(C(F)(F)F)c(Cl)c4)ccc3c2)CC1`, for which the GI50 was 1.57 µM in assay [1]; 2.33 µM in assay [2]; 1.81 µM in assay [3]; 1.71 µM in assay [4]; 1.13 µM in assay [5]; 1.37 µM in assay [6]. Besides, the GI50 was 1.8 µM in assay [7] and 1.62 µM in assay [8]. In addition, the TGI was 3.64 µM in assay [1]; 5.3 µM in assay [2]; 3.49 µM in assay [3]; 3.33 µM in assay [4]; 2.75 µM in assay [5]; 3.56 µM in assay [6]. Further, the TGI in assay [7] was found to be 3.75 µM; in assay [8], 4.54 µM.
Consider `COc1cc(CCNc2nc3cc(N)cc(N)c3nc2-c2ccccc2)cc(OC)c1`, for which the GI50 in assay [1] was 1.36 µM; in assay [2] it was 2.52 µM; in assay [3] it was 3.56 µM; in assay [4], 2.28 µM; in assay [5], 1.57 µM; in assay [6] it was 1.71 µM. Besides, the figures for the GI50 in assay [7] and in assay [8] were 1.83 µM and 1.74 µM, respectively. For the same compound, the TGI stood at 6.48 µM in assay [1]; 7.98 µM in assay [2]; 13 µM in assay [3]; 4.71 µM in assay [4]; 4.55 µM in assay [5]; 3.89 µM in assay [6]. Besides, the results for the TGI in assay [7] and in assay [8] were 3.69 µM and 3.8 µM, respectively.
On to `O=C1C(Cl)=C(Nc2cccc(O)c2)C(=O)N1c1ccc(Cl)cc1Cl`, for which the GI50 is 17.5 µM in assay [1]; 22.5 µM in assay [2]; 40.4 µM in assay [3]; 17.3 µM in assay [4]; 23.3 µM in assay [5]; 19.8 µM in assay [6]. Besides, the GI50 in assay [7] is 40.2 µM; in assay [8] it was 43.6 µM. The TGI was 46.9 µM in assay [1]; 51.5 µM in assay [2]; above 100 µM in assay [3]; 38.3 µM in assay [4]; 77.5 µM in assay [5]; 63.3 µM in assay [6]. For the same compound, the TGI in assay [7] and in assay [8] was above 100 µM throughout.
As to `CNC(=O)c1c(NC(=O)c2ccc(C(C)C)cc2)sc2c1CCC(=O)C2`, the GI50 was 0.146 µM in assay [1]; 0.542 µM in assay [2]; 2.47 µM in assay [3]; 0.125 µM in assay [4]; 0.394 µM in assay [5]; 0.428 µM in assay [6]. Besides, the figures for the GI50 in assay [7] and in assay [8] were 0.496 µM and 0.341 µM, respectively. The TGI in assay [2] was found to be 2.4 µM; in assay [3], 9.09 µM; in assay [4], 1.32 µM; in assay [5], 1.71 µM; in assay [6], 5.32 µM; in assay [7], 1.93 µM. The compound further yielded a TGI in assay [8] of 2.3 µM.
Consider `Cc1csc(-c2ccc3c(c2)COC3(CCCN(C)C)c2ccc(F)cc2)c1` (configuration not stated), for which the GI50 in assay [1] was 2.21 µM; in assay [2] it was 1.67 µM; in assay [3], 1.87 µM; in assay [4], 1.8 µM; in assay [5], 1.79 µM; in assay [6] it was 1.7 µM. The GI50 in assay [7] was 1.63 µM; in assay [8], 1.85 µM. The TGI in assay [1] turned out to be 5.35 µM; in assay [2], 3.32 µM; in assay [3], 3.69 µM; in assay [4], 3.51 µM; in assay [5] it was 3.34 µM; in assay [6], 3.38 µM. In addition, the TGI in assay [7] was 3.05 µM; in assay [8], 4.62 µM.
As to `O=C(c1ccncc1)N1CCN(C2=NS(=O)(=O)c3ccccc3N2c2ccccc2)CC1`, the GI50 was 1.95 µM in assay [1]; 25.1 µM in assay [2]; 13.4 µM in assay [3]; 15.5 µM in assay [4]; 30.7 µM in assay [5]; 7.39 µM in assay [6]. For the same compound, the GI50 in assay [7] was 33.4 µM; in assay [8], 10.9 µM. Further, the TGI in assay [1] is above 100 µM; in assay [2], above 100 µM; in assay [3], above 100 µM; in assay [4] it was 57.1 µM; in assay [5], 75.2 µM; in assay [6], above 100 µM. Moreover, the values for the TGI in assay [7] and in assay [8] were above 100 µM and 57.5 µM, respectively.
